Assay [1] concerns the target thrombospondin binding to heparin. The assay can be described thus: Inhibition of 125I-thrombospondin binding to immobilized heparin-BSA. More on the design: species or system human. The note with it: for inhibition of thrombospondin binding to heparin, in words: free peptide. How it is done:
(§1) The peptides were tested as inhibitors of laminin, thrombospondin or apolipoprotein E binding to a heparin-bovine serum albumen conjugate or to a sulfatide in a solid phase assay essentially following the procedure described in Zabrenetzky et al., Cancer Res., Vol. 50, pages 5937-5942 (1990). Sulfatide (0.2 μg/well for thrombospondin binding, 0.6 μg/well for laminin binding) was immobilized in a mixture of 50 ng of phosphatidyl choline, and 30 ng of cholesterol on polyvinyl chloride microtiter plates. Heparin-BSA (0.2 μg/well) was absorbed onto polyvinyl chloride microtiter plate wells by incubation of 50 μl of Dulbecco's PBS for 2 h at 37°. The wells were emptied and filled with 50 mM tris, pH 7.8 containing 150 mM NaCl, 1 mM CaCl2, 0.025% NaN3, and 1% BSA. After 30 minutes, the wells were emptied and 30 μl of various concentrations of potential inhibitory peptides diluted in the same buffer or buffer alone and 30 μl of ^125 I-labeled laminin, thrombospondin or apolipoprotein E (0.2 μg/ml) were added to each well. After 3 hours at 4°, the wells were washed 6 times with 0.15M NaCl, cut from the plate and the bound radioactivity counted. FIGS. 1A-B and 2A-B show the level of thrombospondin binding to sulfatide and heparin-BSA, respectively, in the presence of increasing concetrations of the peptides listed. FIGS. 3 and 4A-B show the level of laminin binding to sulfatide and heparin-BSA, respectively, in the presence of increasing concentrations of the listed peptides.
Microtiter plate wells were coated with heparin-BSA. Heparin-BSA (0.2 μg/well) was adsorbed by incubation in 50 μl of Dulbecco's PBS for 2 h at 370. The wells were emptied, filled with tris-BSA, and incubated for 30 to 60 minutes. The buffer was removed, and labelled thrombospondin was added and incubated in the wells for 3 h at 40. The wells were emptied and washed 4 times with saline. The bottoms of the wells were cut from the plate and counted to quantify thrombospondin binding. Inhibition of thrombospondin binding was determined using peptides diluted in 30 μl of 50 mM tris buffer, pH 7.8, containing 110 mM NaCl, 1 mM CaCl2, 0.025% NaN3, and 1% BSA or buffer alone and 30 μl of ^125 I-labeled TSP (0.2 μg/ml).

The target of assay [2] is thrombospondin binding to sulfatide. The assay can be described thus: Inhibition of 125I-thrombospondin binding to sulfatide. More on the design: species or system human. Conditions: for IC50: Table 1, free peptide. As to the method:
as §1

In assay [3] the target is laminin binding to heparin. Put plainly: Inhibition of 125I-laminin binding to heparin-BSA. More on the design: species or system mouse. The note with it: Table 2, free peptide. As to the method: as §1
The target of assay [4] is laminin binding to sulfatide. Put plainly: Inhibition of 125I-laminin binding to sulfatide. The note with it: Table 2, free peptide. Further details: species or system mouse. How it is done:
as §1

Assay [5] concerns the target basic fibroblast growth factor (FGF-2) binding to heparin. Put plainly: Inhibition of 125I-bFGF binding to heparin-BSA conjugate. Conditions: retro-inverso peptides; read-out: IC50 for Inhibition of Binding. How it is done: Binding of ^125 I-bFGF to heparin was determined using an immobilized heparin-BSA conjugate as previously described (Guo, et al. (1992) Proc. Nat'l Acad. Sci. 89:3040-3044). ^125 I-bFGF, prepared as described by Neufeld, et al, (1985), J. Biol. Chem. 260:13860-13868, was added described above, and incubated for 2 hours at 25° C. Bound radioactivity was determined after washing and cutting the wells from the plate. FIGS. 40A, B and C show the inhibition of ^125 I-bFGF binding to heparin by a number of TSP peptide analogs.

Where [6] appears, read: Table 1, free peptide, read-out: IC50 Heparin Binding, inhibition of 125I-thrombospondin binding.
Where [7] appears, read: retro-inverso peptides, free, read-out: IC50 Inhibitory Activity, Free Peptide.

Broadly, the IC50 is the concentration at which inhibition is half-maximal.

Each structure is given as a SMILES string. Where two headings read alike, the source gives them in different places. Square brackets hold non-standard residues; d marks the D form. Peptide text beside a SMILES is read from it. Ava = NCCCCC(=O)O; Mpa = O=C(O)CCS

For `CC(C)[C@H](N)C(=O)N[C@H](C(=O)N[C@@H](CS)C(=O)NCC(=O)O)[C@@H](C)O` [Peptide 203, VTCG] (H-VTCG-OH), the IC50 in assay [1] (setting [6]), in assay [2], in assay [3] and in assay [4] was over 200 µM each time. For the same compound, the “inhibition of thrombospondin binding to heparin, in words” value (shortened to “inhibition of thrombospondin binding”) in assay [1] is “inactive”.
Consider `CC(C)[C@H](N)C(=O)N[C@H](C(=O)N[C@@H](CS)C(=O)NCC(=O)NCC(=O)NCC(=O)N[C@H](C(=O)N[C@@H](CCC(N)=O)C(=O)N[C@@H](CCCCN)C(=O)N[C@@H](CCCNC(=N)N)C(=O)O)C(C)C)[C@@H](C)O` [Peptide 204, VTCGGGVQKR] (H-VTCGGGVQKR-OH), for which the IC50 in assay [1] (setting [6]), in assay [2], in assay [3] and in assay [4] was over 200 µM throughout.
Take `CC[C@H](C)[C@H](NC(=O)[C@@H](NC(=O)CNC(=O)[C@H](CC(=O)O)NC(=O)CNC(=O)[C@H](CS)NC(=O)[C@@H](NC(=O)[C@@H](N)C(C)C)[C@@H](C)O)C(C)C)C(=O)N[C@H](C(=O)N[C@@H](CCCNC(=N)N)C(=O)O)[C@@H](C)O` [Peptide 205, VTCGDGVITR] (H-VTCGDGVITR-OH): the IC50 in assay [1] (setting [6]), in assay [2], in assay [3] and in assay [4] was over 200 µM in each case.
Take `CC[C@H](C)[C@H](NC(=O)CNC(=O)[C@H](CC(N)=O)NC(=O)CNC(=O)[C@H](CS)NC(=O)[C@H](CO)NC(=O)[C@@H](N)[C@@H](C)O)C(=O)N[C@@H](CCC(N)=O)C(=O)N[C@@H](CCC(N)=O)C(=O)N[C@@H](CCCNC(=N)N)C(=O)O` [Peptide 206, TSCGNGIQQR] (H-TSCGNGIQQR-OH): the IC50 in assay [1] (setting [6]), in assay [2], in assay [3] and in assay [4] was over 200 µM throughout.
As to `CC(C)[C@H](NC(=O)[C@H](CO)NC(=O)[C@@H](N)CS)C(=O)N[C@H](C(=O)O)[C@@H](C)O` [Peptide 234, CSVT] (H-CSVT-OH), the IC50 in assay [1] (setting [6]), in assay [2], in assay [3] and in assay [4] was over 200 µM throughout. Also, the “inhibition of thrombospondin binding” value in assay [1] is “inactive”.
Turning to `CC(C)[C@H](NC(=O)[C@H](CO)NC(=O)[C@@H](N)CO)C(=O)N[C@H](C(=O)O)[C@@H](C)O` [Peptide 235, SSVT] (H-SSVT-OH), the IC50 in assay [1] (setting [6]), in assay [2], in assay [3] and in assay [4] was over 200 µM in each case.
Turning to `CC(C)[C@H](NC(=O)[C@H](CO)NC(=O)[C@H](C)N)C(=O)N[C@H](C(=O)O)[C@@H](C)O` [Peptide 236, ASVT] (H-ASVT-OH), the 50% inhibitory concentration (IC50) in assay [1] (setting [6]), in assay [2], in assay [3] and in assay [4] was over 200 µM in each case.
As to `CC(C)[C@H](NC(=O)[C@H](CO)NC(=O)[C@@H](N)CO)C(=O)N[C@H](C(=O)N[C@@H](CS)C(=O)NCC(=O)O)[C@@H](C)O` [Peptide 237, SSVTCG] (H-SSVTCG-OH), the IC50 in assay [1] (setting [6]) was 58 µM; in assay [2], 30 µM; in assay [3], 100 µM; in assay [4] it was 85 µM. Also, the “inhibition of thrombospondin binding” value in assay [1] is listed as “very weak inhibitor”. Further, the “fold less active than CSVTCG” value in assay [2] (thrombospondin binding to sulfatide) is 2 fold.
As for `CC(C)[C@H](NC(=O)[C@H](CO)NC(=O)[C@H](CS)NC(=O)[C@H](CO)NC(=O)[C@@H](N)CO)C(=O)N[C@H](C(=O)O)[C@@H](C)O` [Peptide 238, SSCSVT] (H-SSCSVT-OH), the IC50 in assay [1] (setting [6]) is 85 µM; in assay [2] it was over 100 µM; in assay [3], over 200 µM; in assay [4], over 200 µM. Further, the “inhibition of thrombospondin binding” value in assay [1] is reported as “weak inhibition of thrombospondin binding”.
With `CC(C)C[C@H](NC(=O)[C@H](CCCNC(=N)N)NC(=O)[C@H](CO)NC(=O)[C@H](CCCNC(=N)N)NC(=O)[C@H](CCCCN)NC(=O)[C@H](CCC(N)=O)NC(=O)[C@@H](NC(=O)CNC(=O)CNC(=O)CNC(=O)[C@H](CS)NC(=O)[C@@H](NC(=O)[C@@H](N)C(C)C)[C@@H](C)O)C(C)C)C(=O)O` [Peptide 245, VTCGGGVQKRSRL] (H-VTCGGGVQKRSRL-OH), the IC50 in assay [1] (setting [6]) is over 200 µM; in assay [2] it was over 200 µM; in assay [3] it was about 200 µM; in assay [4], over 200 µM. Further, the “inhibition of thrombospondin binding” value in assay [1] was “inactive”.
For the compound `CC(=O)N[C@H](CS)C(=O)N[C@H](CO)C(=O)N[C@H](CO)C(=O)N[C@H](Cc1c[nH]c2ccccc12)C(=O)N1CCC[C@@H]1C(=O)N[C@H](CO)C(=O)N[C@H](Cc1c[nH]c2ccccc12)C(=O)N[C@H](Cc1c[nH]cn1)C(=O)N[C@H](CO)C(=O)N[C@H](Cc1c[nH]c2ccccc12)C(=O)NCC(=O)NCC(=O)N[C@H](C)C(=O)N[C@H](C)C(=O)N[C@H](CCCCN)C(=O)N[C@H](C)C(=O)N[C@H](CCCNC(=N)N)C(=O)N[C@H](CCCCN)C(N)=O` [Peptide 473, ri-amKRAKAAGGWSHWSPWSSCac] (Ac-[dC][dS][dS][dW][dP][dS][dW][dH][dS][dW]GG[dA][dA][dK][dA][dR][dK]-NH2), the IC50 in assay [1] (setting [7]) came to 0.15 µM; in assay [5] it was 1.9 µM.
For the compound `CC(=O)N[C@H](C)C(=O)N[C@H](C)C(=O)N[C@H](Cc1c[nH]c2ccccc12)C(=O)N[C@H](Cc1c[nH]cn1)C(=O)N[C@H](CO)C(=O)N[C@H](Cc1c[nH]c2ccccc12)C(=O)NCC(=O)N[C@H](C)C(=O)N[C@H](CCC(N)=O)C(=O)N[C@H](CCCCN)C(=O)N[C@H](C)C(=O)N[C@H](CCCNC(=N)N)C(=O)N[C@H](CCCCN)C(N)=O` [Peptide 529, ri-amKRAKQAGWSHWAAac] (Ac-[dA][dA][dW][dH][dS][dW]G[dA][dQ][dK][dA][dR][dK]-NH2), the concentration for half-maximal inhibition (IC50) in assay [5] was determined as 0.37 µM.
On the same count and under the same terms, next, `CC(=O)N[C@H](C)C(=O)N[C@H](C)C(=O)N[C@H](Cc1c[nH]c2ccccc12)C(=O)N[C@H](Cc1c[nH]cn1)C(=O)N[C@H](CO)C(=O)N[C@H](Cc1c[nH]c2ccccc12)C(=O)NCC(=O)N[C@H](C)C(=O)N[C@H](CCC(N)=O)C(=O)N[C@H](CCCCN)C(=O)N[C@H](Cc1ccccc1)C(=O)N[C@H](CCCNC(=N)N)C(=O)N[C@H](CCCCN)C(N)=O` [Peptide 530, ri-amKRFKQAGWSHWAAac] (Ac-[dA][dA][dW][dH][dS][dW]G[dA][dQ][dK][dF][dR][dK]-NH2): 0.65 µM; `CC(=O)N[C@H](C)C(=O)N[C@H](C)C(=O)N[C@H](Cc1c[nH]c2ccccc12)C(=O)N[C@H](Cc1c[nH]cn1)C(=O)N[C@H](CO)C(=O)N[C@H](Cc1c[nH]c2ccccc12)C(=O)NCC(=O)N[C@H](C)C(=O)N[C@H](CCC(N)=O)C(=O)N[C@H](CCCNC(=N)N)C(=O)N[C@H](C)C(=O)N[C@H](CCCNC(=N)N)C(=O)N[C@H](CCCCN)C(N)=O` [Peptide 536, ri-amKRARQAGWSHWAAac] (Ac-[dA][dA][dW][dH][dS][dW]G[dA][dQ][dR][dA][dR][dK]-NH2): 0.95 µM; `CC(=O)N[C@H](C)C(=O)N[C@H](C)C(=O)N[C@H](Cc1c[nH]c2ccccc12)C(=O)N[C@H](Cc1c[nH]cn1)C(=O)N[C@H](CO)C(=O)N[C@H](Cc1c[nH]c2ccccc12)C(=O)NCC(=O)N[C@H](C)C(=O)N[C@H](CCC(N)=O)C(=O)N[C@H](CCCCN)C(=O)N[C@H](C)C(=O)N[C@H](CCCCN)C(=O)N[C@H](CCCCN)C(N)=O` [Peptide 537, ri-amKKAKQAGWSHWAAac] (Ac-[dA][dA][dW][dH][dS][dW]G[dA][dQ][dK][dA][dK][dK]-NH2): 0.1 µM.
Take `C[C@@H](NC(=O)CCS)C(=O)N[C@H](C)C(=O)N[C@H](Cc1c[nH]c2ccccc12)C(=O)N[C@H](Cc1c[nH]cn1)C(=O)N[C@H](CO)C(=O)N[C@H](Cc1c[nH]c2ccccc12)C(=O)NCCCCC(=O)N[C@H](C)C(=O)N[C@H](CCC(N)=O)C(=O)N[C@H](CCCCN)C(=O)N[C@H](C)C(=O)N[C@H](CCCNC(=N)N)C(=O)N[C@H](CCCCN)C(N)=O` [ri-amKRAKQUWSHWAAtp] ([Mpa][dA][dA][dW][dH][dS][dW][Ava][dA][dQ][dK][dA][dR][dK]-NH2): the IC50 in assay [1] (setting [7]) came out at 0.046 µM.

The values are drawn from patent US5770563A, “Heparin- and sulfatide binding peptides from the type I repeats of human thrombospondin and conjugates thereof” (The United States of America as represented by the …, priority 1995, dated 1998).
